# Experimental data as given in PubChem BioAssay (NCI).
#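 Cells were grown in 96-well plates and exposed to each compound for 48 hours at five concentrations; endpoints were interpolated linearly between bracketing concentrations, or set to the highest concentration if not reached. The concentration for 50% growth inhibition is given as GI50. The concentration for full growth arrest is given as TGI.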
# Tests used:
# Assay in all cases: growth of human tumour cells (NCI), 48 h
# HCC-2998 colon = system: HCC-2998 colon
# HCT-15 colon = system: HCT-15 colon
# LOX IMVI melanoma = system: LOX IMVI melanoma
# MDA-MB-435 = system: MDA-MB-435
# OVCAR-4 ovarian = system: OVCAR-4 ovarian
# SF-268 CNS = system: SF-268 CNS
# SN12C renal = system: SN12C renal
# UACC-257 melanoma = system: UACC-257 melanoma
# UACC-62 melanoma = system: UACC-62 melanoma
# OVCAR-8 ovarian = system: OVCAR-8 ovarian
Compound,TGI (HCC-2998 colon) [µM],TGI (HCT-15 colon) [µM],TGI (LOX IMVI melanoma) [µM],TGI (MDA-MB-435) [µM],TGI (OVCAR-4 ovarian) [µM],TGI (SF-268 CNS) [µM],TGI (SN12C renal) [µM],TGI (UACC-257 melanoma) [µM],TGI (UACC-62 melanoma) [µM],TGI (OVCAR-8 ovarian) [µM],GI50 (HCT-15 colon) [µM],GI50 (MDA-MB-435) [µM],GI50 (SF-268 CNS) [µM],GI50 (SN12C renal) [µM],GI50 (UACC-257 melanoma) [µM],GI50 (UACC-62 melanoma) [µM]
Nc1nc(Nc2ccc(Cl)cc2)sc1C(=O)c1c[nH]c2ccccc12,24.1,15.2,43.8,47.5,51.7,60,29,19.7,28,–,–,–,–,–,–,–
C=C1C2C[C@@H]3OC4CC5O[C@]6(CC5OC4C(C)C3OC(=O)CC3CC[C@@H]4OC5C7OC8C[C@](CCC9CC(=C)[C@H](CCC(C[C@H]1C)O2)O9)(OC7C4O3)O[C@@H]85)C[C@@H]1O[C@@]2(CC(C)[C@@H]3OC(CC(=O)CCO)C(O)C[C@@H]3O2)CC(C)[C@@H]1O6 (some centres undefined),< 0.001,0.00109,0.119,–,< 0.001,1.61,0.206,1.52,0.181,0.0172,–,–,–,–,–,–
Cc1ccc(S(=O)(=O)NC(=O)NCCc2ccc(O)c(O)c2)cc1,> 100,> 100,> 100,> 100,> 100,> 100,–,–,> 100,> 100,–,–,–,–,–,–
Cc1c(-c2coc(-c3ccccc3)n2)c(=O)n(-c2ccccc2)n1C,> 100,> 100,> 100,–,> 100,> 100,> 100,> 100,–,> 100,–,–,–,–,–,–
CCOC(=O)CCC(NC(=O)c1ccc(Nc2nc3cc(C(F)(F)F)ccc3nc2C(=O)OCC)cc1)C(=O)OCC (centres undefined),> 100,> 100,36.2,21.9,–,28.6,24.3,34.5,41.7,24.6,–,–,–,–,–,–
COCCOC(C)C(=O)C(O)S(=O)(=O)O (centres undefined),> 100,> 100,–,> 100,> 100,> 100,> 100,> 100,> 100,> 100,–,–,–,–,–,–
C[C@@H](NC(=O)[C@@H]1C[C@]1(C)CO)c1cccc2ccccc12,> 100,> 100,–,> 100,> 100,> 100,> 100,> 100,> 100,> 100,–,–,–,–,–,–
CCCc1n[nH]c(=O)n1N1C(=O)C=CC1=O,> 100,> 100,–,> 100,> 100,–,> 100,> 100,> 100,–,–,–,–,–,–,–
Clc1ccc2nc3n[nH]c(Cl)c3nc2c1,> 100,> 100,–,> 100,> 100,> 100,> 100,> 100,> 100,> 100,–,–,–,–,–,–
O=C(O)CN1CCCC(Cc2c[nH]c3ccccc23)C1 (centres undefined),> 100,> 100,> 100,> 100,> 100,> 100,–,> 100,> 100,> 100,–,–,–,–,–,–
C/C=C/c1cc2c(c(=O)o1)C(=O)[C@@H](O)[C@H](C)O2,24,25.9,26.4,–,29.7,30,29.2,31.8,34.1,35,–,–,–,–,–,–
O=C(/C=C/c1ccc2c(c1)OCO2)NCCc1ccco1,> 100,–,> 100,> 100,> 100,> 100,> 100,> 100,> 100,> 100,–,–,–,–,–,–
COC(=O)c1ccccc1NC(=S)NN(C)C,> 100,> 100,> 100,> 100,> 100,–,–,> 100,> 100,> 100,–,–,–,–,–,–
O=C(NC12CC3CC(CC(C3)C1)C2)C(=O)c1c[nH]c2ccc(Br)cc12,> 100,> 100,18.4,–,35.5,34.2,61.2,> 100,> 100,87.3,–,–,–,–,–,–
CC(C)(C)c1cc(C(=O)C2Cc3ccccc3C(=O)O2)cc(C(C)(C)C)c1O (centres undefined),–,37,26.5,32.6,65.7,40.6,26.5,23.9,26.3,33.3,–,–,–,–,–,–
Oc1cc(O)c2c(c1)O[C@H](c1cc(O)c(O)c(O)c1)[C@@H](O)C2,> 10,> 100,37.9,38.1,48.7,58.7,33,> 100,–,31.1,–,–,–,–,–,–
Cc1nc2ccccc2c(=O)n1NC(=O)c1ccccc1[N+](=O)[O-],> 100,> 100,> 100,> 100,> 100,> 100,> 100,> 100,> 100,–,–,–,–,–,–,–
N/C(=N\NC(=O)c1nc2ccccc2s1)c1ccccn1,> 61.5,31.9,> 100,> 37.6,–,> 100,18,> 79.8,19.5,> 47.2,–,–,–,–,–,–
Nc1ncnc2c1ncn2CCCC(c1ccccc1)P(=O)(O)O (centres undefined),> 100,> 100,> 100,–,–,> 100,> 100,> 100,> 100,> 100,–,–,–,–,–,–
COc1cc(OCc2nc3cc(C(F)(F)F)ccc3nc2-c2ccccc2)cc(OC)c1OC,> 100,> 100,> 100,> 100,> 100,> 100,–,> 100,> 100,> 100,–,–,–,–,–,–
CCCCCCCCCCCCCCCCNCC(O)CN (centres undefined),5.84,4.38,3.45,–,12.1,12.9,12.9,23.7,17,12.3,–,–,–,–,–,–
C[C@]12C(=O)C=CCC1=CC[C@@H]1[C@@H]2[C@H]2CC3(O)C(=O)O[C@@]4(C)[C@H]5C[C@@]6(C)[C@@H]7[C@@]2(O)[C@]1(OC[C@H]6C(=O)O5)O[C@]734 (some centres undefined),–,> 100,75.5,> 100,> 100,> 100,> 100,> 100,> 100,> 100,–,–,–,–,–,–
Cn1cc(-c2nc(-c3c[nH]c4ccncc34)cs2)c2ccccc21,–,2.81,–,3.32,–,3.43,3.27,3.55,3.11,–,1.37,1.79,1.79,1.76,1.96,1.69
